Assay results from patent US10854312B2, “Selective peptide antagonists” (BIONIZ, LLC, priority 2013, dated 2020).
“Also recorded” adds a separate entry of the source. No end group written: not given here.

Key:
Assay type in all cases: cell-based
human IL-15 = test: CTLL-2 proliferation assay (WST-1), IL-15; conditions: murine CTLL-2 cells, 1 nM human IL-15, BNZ132-1 50 and 500 nM, WST-1 OD450
Protocol: FIG. 6A-FIG. 6E presents inhibitory spectrum of BNZ132-1 over γc- and non-γc-cytokines. […] Neutralizing antibodies against each cytokine (R & D systems, 5 μg ml^−1) were included as controls. After 20 h, the cells were pulsed with WST-1 (Clontech) and OD450 of each well was measured after 6 h. A 19-mer scrambled peptide was used as a negative control at 5 μM. The experiments were conducted in triplicate (applies to all experiments in FIG. 6A-FIG. 6E). The result represents one of at least three independent experiments (applies to all experiments in FIG. 6A-FIG. 6E). […] In PT-18 proliferation assay, PT-18β or PT-18h21Rα cells were withdrawn of mouse IL-3 for 12 h before the experiment. Cells were then incubated with 1 nM of mouse IL-4, mouse IL-9, or mouse IL-21 in the presence or absence of the indicated doses (μM) of BNZ132-1. Neutralizing antibodies to each cytokine (5 μg ml^−1, except for anti-mouse IL-21 polyclonal antibody which was used at 15 μg ml−1) and a scrambled control peptide (5 μM) were included as negative controls. WST-1 assay was conducted as described above. […] In PT-18 h21Rα survival assay, PT-18h21Rα cells are described in the text. […] Both parental and hIL-21Rα positive PT-18 cells were washed and incubated without IL-3 for 12 h before the assay. […] The Y-axis represents the cpm (count per minute) values measured by a β-counter. […]

mouse IL-3 = mouse IL-3 (Mus musculus, UniProt P01586); test: PT-18β proliferation assay (3H-thymidine), non-γc cytokine IL-3; conditions: 1 nM mouse IL-3, 15 μM BNZ132-1
human IL-9 = test: NK92 cell proliferation assay (WST-1), IL-9; conditions: 24 h
Protocol: Human peripheral blood mononuclear cells were purified by the Ficoll-paque gradient centrifugation (GE-Healthcare) and stimulated by PHA (5 μg ml^−1, Sigma) for 48 h, then expanded with IL-2 (0.5 nM, Peprotech) for 48h, and then depleted of non-T cells by the Pan-T cell negative enrichment Ab cocktails (Miltenyi). The purified T cells were then fasted of IL-2 overnight prior to the proliferation assay by the tetrazolium dye method. Four hundred thousand cells (in 200 μl culture) were incubated with the cytokines and BNZ132-1 at the indicated concentrations for 24 h, and 20 μl WST1 reagent (Clontech) was added to each well. After 12 h incubation, OD450 was measured. The assay was performed in triplicate. […] NK 92 cells were cultured in human IL-2. Cells were washed to withdraw IL-2 for overnight and two hundred thousand cells (in 200 μl volume) were incubated with the indicated concentrations of the cytokine and BNZ132-1 for 24 h before 20 μl WST-1 reagent (Clontech) was added to each well to measure proliferative response. Absorbance at 450 nm was read at 6 h after the addition of the WST-1 dye. The assay was performed in triplicate. The assay was performed in triplicate and the figure represents a typical result out of 5 different HAM-TSP patients.

IKEFLQRFIHIVQSIINTS [BNZ132-1]
inhibition of IL-15-induced proliferation of CTLL-2 cells (human IL-15): inhibited IL-2 and IL-15 with an equal efficacy; also recorded: efficiently inhibits; also recorded: inhibition of IL-2 and IL-15
inhibition of IL-3-induced proliferation of PT-18β cells (mouse IL-3): did not inhibit; also recorded: no inhibition; also recorded: no inhibition of non-γc cytokines
inhibition of IL-9-induced proliferation of NK92 cells (human IL-9): dose-dependent inhibition
